# Biological target: T1, human APJ receptor (Homo sapiens, UniProt P35414)
# T1 construct: expressed in transfected cells; host or cells: HEK293
# T1 sequence (P35414 1-380): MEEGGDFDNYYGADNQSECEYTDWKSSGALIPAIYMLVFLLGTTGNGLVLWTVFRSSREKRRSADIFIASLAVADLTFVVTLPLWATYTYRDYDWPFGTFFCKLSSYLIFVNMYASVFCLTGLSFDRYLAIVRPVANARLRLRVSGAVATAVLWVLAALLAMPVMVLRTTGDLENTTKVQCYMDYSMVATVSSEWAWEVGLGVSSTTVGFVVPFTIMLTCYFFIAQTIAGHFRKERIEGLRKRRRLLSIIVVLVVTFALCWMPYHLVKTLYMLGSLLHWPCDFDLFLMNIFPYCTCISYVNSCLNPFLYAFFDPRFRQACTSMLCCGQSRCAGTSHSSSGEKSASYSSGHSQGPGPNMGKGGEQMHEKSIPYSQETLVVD
# Assay: Intracellular cAMP Accumulation Assay (APJ hcAMP, HTRF)
# Format: cell-based
# Details: human APJ, intracellular cAMP accumulation; read-out: hAPJ cAMP EC50 Potency range
# Method in brief: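 Stably transfected HEK293 cells (5,000/well) incubated 30 min at room temperature with serially diluted compound, […] and 2 μM forskolin. cAMP measured by HTRF after 60 min with detection reagents, quantified against a cAMP standard curve; EC50 from variable-slope sigmoidal fit of inhibition of forskolin-stimulated cAMP.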
row,SMILES,EC50
1,"CCCCc1nc(=O)c(C(=O)N2CC[C@H](c3ccccc3)C2)c(O)n1-c1c(OC)ncnc1OC [Example 113, 2-butyl-3-(4,6-dimethoxypyrimidin-5-yl)-6-hydroxy-5-[(3R)-3-phenylpyrrolidine-1-carbonyl]-3,4-dihydropyrimidin-4-one]",0.01 to 10 nM
2,"CCCCc1nc(=O)c(C(=O)N2CCC(c3ccccc3F)C2)c(O)n1[C@@H](CC)c1ccccc1 (stereo partly drawn) [Example 114, 2-butyl-5-[3-(2-fluorophenyl)pyrrolidine-1-carbonyl]-6-hydroxy-3-[(1S)-1-phenylpropyl]-3,4-dihydropyrimidin-4-one]",0.01 to 10 nM
3,"CCCCc1nc(=O)c(C(=O)N2CC[C@H](c3ccccc3)C2)c(O)n1[C@@H](COC)c1ccccc1 [Example 116, 2-butyl-6-hydroxy-3-[(1R)-2-methoxy-1-phenylethyl]-5-[(3R)-3-phenylpyrrolidine-1-carbonyl]-3,4-dihydropyrimidin-4-one]",0.01 to 10 nM
4,"CCCCc1nc(=O)c(C(=O)N2CC[C@H](c3ccccc3)C2)c(O)n1[C@H](C)c1ccccc1OC [Example 122, 2-butyl-6-hydroxy-3-[(1R)-1-(2-methoxyphenyl)ethyl]-5-[(3R)-3-phenylpyrrolidine-1-carbonyl]-3,4-dihydropyrimidin-4-one]",0.01 to 10 nM
5,"CCCCc1nc(=O)c(C(=O)N2CC[C@H](c3ccccc3)C2)c(O)n1C(c1ccccc1)C(C)C (stereo partly drawn) [Example 130, 2-butyl-6-hydroxy-3-(2-methyl-1-phenylpropyl)-5-[(3R)-3-phenylpyrrolidine-1-carbonyl]-3,4-dihydropyrimidin-4-one]",10 to 100 nM
6,"CCCCc1nc(=O)c(C(=O)N2CC[C@@H](c3ccccc3)C2)c(O)n1[C@@H](C)C1CC1 [Example 131, 2-butyl-3-[(1S)-1-cyc1opropylethyl]-6-hydroxy-5-[(3S)-3-phenylpyrrolidine-1-carbonyl]-3,4-dihydropyrimidin-4-one]",10 to 100 nM
7,"CCCCc1nc(=O)c(C(=O)N2CC[C@@H](c3ccccc3)C2)c(O)n1C(C)c1ccccc1Cl (stereo partly drawn) [Example 133, 2-butyl-3-[1-(2-chlorophenyl)ethyl]-6-hydroxy-5-[(3S)-3-phenylpyrrolidine-1-carbonyl]-3,4-dihydropyrimidin-4-one]",10 to 100 nM
8,"CCCCc1nc(=O)c(C(=O)N2CC[C@H](c3ccccc3)C2)c(O)n1C(C)c1ccccc1Cl (stereo partly drawn) [Example 134, 2-butyl-3-[1-(2-chlorophenyl)ethyl]-6-hydroxy-5-[(3R)-3-phenylpyrrolidine-1-carbonyl]-3,4-dihydropyrimidin-4-one]",10 to 100 nM
9,"CCCCc1nc(=O)c(C(=O)N2CC[C@H](c3ccccc3)C2)c(O)n1[C@@H](C)c1cccc(OC)c1 [Example 139, 2-butyl-6-hydroxy-3-[(1S)-1-(3-methoxyphenyl)ethyl]-5-[(3R)-3-phenylpyrrolidine-1-carbonyl]-3,4-dihydropyrimidin-4-one]",10 to 100 nM
10,"CCCCc1nc(=O)c(C(=O)N2CC[C@H](c3ccccc3)C2)c(O)n1[C@@H](C)c1ccccc1 [Example 141, 2-butyl-6-hydroxy-3-[(1S)-1-phenylethyl]-5-[(3R)-3-phenylpyrrolidine-1-carbonyl]-3,4-dihydropyrimidin-4-one]",10 to 100 nM
11,"CCCCc1nc(=O)c(C(=O)N2CC[C@H](c3ccccc3)C2)c(O)n1C(C)c1ccncc1 (stereo partly drawn) [Example 148, 2-butyl-6-hydroxy-5-[(3R)-3-phenylpyrrolidine-1-carbonyl]-3-[1-(pyridin-4-yl)ethyl]3,4-dihydropyrimidin-4-one]",10 to 100 nM
12,"CCCCc1nc(=O)c(C(=O)N2CC[C@@H](c3ccccc3)C2)c(O)n1[C@@H](C)c1cccc(C#N)c1 [Example 149, 3-[(1S)-1-{2-butyl-4-hydroxy-6-oxo-5-[(3S)-3-phenylpyrrolidine-1-carbonyl]-1,6-dihydropyrimidin-1-yl}ethyl]benzonitrile]",10 to 100 nM

# The remaining lines, values ahead:
row,EC50,SMILES
1,0.01 to 10 nM,"CCCCc1nc(=O)c(C(=O)N2CC[C@H](c3ccccc3)C2)c(O)n1[C@H](C)c1ccccc1 [Example 117, 2-butyl-6-hydroxy-3-[(1R)-1-phenylethyl]-5-[(3R)-3-phenylpyrrolidine-1-carbonyl]-3,4-dihydropyrimidin-4-one]"
2,0.01 to 10 nM,"CCCCc1nc(=O)c(C(=O)N2CC[C@@H](c3ccccc3)C2)c(O)n1[C@@H](C)c1cccc(OC)c1 [Example 120, 2-butyl-6-hydroxy-3-[(1S)-1-(3-methoxyphenyl)ethyl]-5-[(3S)-3-phenylpyrrolidine-1-carbonyl]-3,4-dihydropyrimidin-4-one]"
3,0.01 to 10 nM,"CCCCc1nc(=O)c(C(=O)N2CC[C@@H](c3ccccc3)C2)c(O)n1[C@@H](CC)c1ccccc1 [Example 121, 2-butyl-6-hydroxy-3-[(1S)-1-phenylpropyl]-5-[(3S)-3-phenylpyrrolidine-1-carbonyl]-3,4-dihydropyrimidin-4-one]"
4,0.01 to 10 nM,"CCCCc1nc(=O)c(C(=O)N2CC[C@H](c3ccccc3)C2)c(O)n1[C@H](CC)c1ccccc1 [Example 124, 2-butyl-6-hydroxy-3-[(1R)-1-phenylpropyl]-5-[(3R)-3-phenylpyrrolidine-1-carbonyl]-3,4-dihydropyrimidin-4-one]"
5,0.01 to 10 nM,"CCCCc1nc(=O)c(C(=O)N2CC[C@@H](c3ccccc3)C2)c(O)n1[C@@H](C)c1ccccc1 [Example 125, 2-butyl-6-hydroxy-3-[(1S)-1-phenylethyl]-5-[(3S)-3-phenylpyrrolidine-1-carbonyl]-3,4-dihydropyrimidin-4-one]"
6,0.01 to 10 nM,"CCCCc1nc(=O)c(C(=O)N2CC[C@H](c3ccccc3)C2)c(O)n1[C@@H](C)C1CC1 [Example 126, 2-butyl-3-[(1S)-1-cyclopropylethyl]-6-hydroxy-5-[(3R)-3-phenylpyrrolidine-1-carbonyl]-3,4-dihydropyrimidin-4-one]"
7,10 to 100 nM,"CCCCc1nc(=O)c(C(=O)N2CC[C@@H](c3ccccc3)C2)c(O)n1[C@@H](COC)c1ccccc1 [Example 127, 2-butyl-6-hydroxy-3-[(1R)-2-methoxy-1-phenylethyl]-5-[(3S)-3-phenylpyrrolidine-1-carbonyl]-3,4-dihydropyrimidin-4-one]"
8,10 to 100 nM,"CCCCc1nc(=O)c(C(=O)N2CC[C@@H](c3ccccc3)C2)c(O)n1[C@H](CC)c1ccccc1 [Example 128, 2-butyl-6-hydroxy-3-[(1R)-1-phenylpropyl]-5-[(3S)-3-phenylpyrrolidine-1-carbonyl]-3,4-dihydropyrimidin-4-one]"
9,10 to 100 nM,"CCCCc1nc(=O)c(C(=O)N2CC[C@@H](c3ccccc3)C2)c(O)n1C(c1ccccc1)C(C)C (stereo partly drawn) [Example 129, 2-butyl-6-hydroxy-3-(2-methyl-1-phenylpropyl)-5-[(3S)-3-phenylpyrrolidine-1-carbonyl]-3,4-dihydropyrimidin-4-one]"
10,10 to 100 nM,"CCCCc1nc(=O)c(C(=O)N2CC[C@@H](c3ccccc3)C2)c(O)n1[C@H](C)c1ccccc1 [Example 132, 2-butyl-6-hydroxy-3-[(1R)-1-phenylethyl]-5-[(3S)-3-phenylpyrrolidine-1-carbonyl]-3,4-dihydropyrimidin-4-one]"
11,10 to 100 nM,"CCCCc1nc(=O)c(C(=O)N2CC[C@@H](c3ccccc3)C2)c(O)n1[C@H](C)c1ccccc1OC [Example 135, 2-butyl-6-hydroxy-3-[(1R)-1-(2-methoxyphenyl)ethyl]-5-[(3S)-3-phenylpyrrolidine-1-carbonyl]-3,4-dihydropyrimidin-4-one]"
12,10 to 100 nM,"CCCCc1nc(=O)c(C(=O)N2CC[C@@H](c3ccccc3)C2)c(O)n1C(C)c1ccccc1 (stereo partly drawn) [Example 136, 2-butyl-6-hydroxy-3-(1-phenylethyl)-5-[(3S)-3-phenylpyrrolidine-1-carbonyl]-3,4-dihydropyrimidin-4-one]"
13,10 to 100 nM,"CCCCc1nc(=O)c(C(=O)N2CC[C@H](c3ccccc3)C2)c(O)n1[C@@H](CCC)c1ccccc1 [Example 137, 2-butyl-6-hydroxy-3-[(1S)-1-phenylbutyl]-5-[(3R)-3-phenylpyrrolidine-1-carbonyl]-3,4-dihydropyrimidin-4-one]"
14,10 to 100 nM,"CCCCc1nc(=O)c(C(=O)N2CC[C@H](c3ccccc3)C2)c(O)n1[C@@H](C)c1cccc(C#N)c1 [Example 138, 3-[(1S)-1-{2-butyl-4-hydroxy-6-oxo-5-[(3R)-3-phenylpyrrolidine-1-carbonyl]-1,6-dihydropyrimidin-1-yl}ethyl]benzonitrile]"
15,10 to 100 nM,"CCCCc1nc(=O)c(C(=O)N2CC[C@H](c3ccccc3)C2)c(O)n1C(C)c1cccnc1 (stereo partly drawn) [Example 140, 2-butyl-6-hydroxy-5-[(3R)-3-phenylpyrrolidine-1-carbonyl]-3-[1-(pyridin-3-yl)ethyl]-3,4-dihydropyrimidin-4-one]"
16,10 to 100 nM,"CCCCc1nc(=O)c(C(=O)N2CC[C@H](c3ccccc3)C2)c(O)n1[C@H](C)C1CC1 [Example 142, 2-butyl-3-[(1R)-1-cyc1opropylethyl]-6-hydroxy-5-[(3R)-3-phenylpyrrolidine-1-carbonyl]-3,4-dihydropyrimidin-4-one]"
17,10 to 100 nM,"CCCCc1nc(=O)c(C(=O)N2CC[C@@H](c3ccccc3)C2)c(O)n1[C@@H](C)c1ccc(F)cc1 [Example 143, 2-butyl-3-[(1S)-1-(4-fluorophenyl)ethyl]-6-hydroxy-5-[(3S)-3-phenylpyrrolidine-1-carbonyl]-3,4-dihydropyrimidin-4-one]"
18,10 to 100 nM,"CCCCc1nc(=O)c(C(=O)N2CC[C@@H](c3ccccc3)C2)c(O)n1C(C)c1cccnc1 (stereo partly drawn) [Example 146, 2-butyl-6-hydroxy-5-[(3S)-3-phenylpyrrolidine-1-carbonyl]-3-[1-(pyridin-3-yl)ethyl]-3,4-dihydropyrimidin-4-one]"

# From US10590113B2, “6-hydroxy-4-oxo-1,4-dihydropyrimidine-5-carboxamides as APJ agonists” (priority 2016, dated 2020)
